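Five concentrations, 48 hours, 96-well plates. GI50 is the concentration that inhibits growth by half.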 Calls of active or inactive are those of the source. Cut-off read from the data, not from the text of the source: active = GI50 up to about 1.1 µM and inactive = higher.
How the values were obtained:
Assay in all cases: NCI anticancer screen, dose series, 48 h
[1] = test system: 786-0
[2] = test system: A498
[3] = test system: A549
[4] = test system: ACHN
[5] = test system: CAKI-1
[6] = test system: CCRF-CEM
[7] = test system: COLO 205
[8] = test system: DLD-1
[9] = test system: DMS-114
[10] = test system: EKVX
[11] = test system: HCC 2998
[12] = test system: HCT-116
[13] = test system: HCT-15
[14] = test system: HL-60
[15] = test system: HOP-18
[16] = test system: HOP-62
[17] = test system: HOP-92
[18] = test system: HT-29
[19] = test system: IGROV-1
[20] = test system: K562
[21] = test system: KM-20L2
[22] = test system: KM12
[23] = test system: LOX IMVI
[24] = test system: LXFL 529
[25] = test system: M14
[26] = test system: M19-MEL
[27] = test system: MOLT-4
[28] = test system: Malme-3M
[29] = test system: NCI-H226
[30] = test system: NCI-H23
[31] = test system: NCI-H460
[32] = test system: NCI-H522
[33] = test system: OVCAR-3
[34] = test system: OVCAR-4
[35] = test system: OVCAR-5
[36] = test system: OVCAR-8
[37] = test system: RPMI-8226
[38] = test system: RXF 393
[39] = test system: RXF 631
[40] = test system: SF-268
[41] = test system: SF-295
[42] = test system: SF-539
[43] = test system: SK-MEL-28
[44] = test system: SK-MEL-5
[45] = test system: SK-OV-3
[46] = test system: SN12C
[47] = test system: SNB-19
[48] = test system: SNB-75
[49] = test system: SNB-78
[50] = test system: SR
[51] = test system: SW-620
[52] = test system: TK-10
[53] = test system: U-251
[54] = test system: UACC-257
[55] = test system: UACC-62
[56] = test system: UO-31
[57] = test system: DMS-273
[58] = test system: SK-MEL-2
[59] = test system: XF498

Measured: GI50

CN(CCS(=O)(=O)N1C(=O)C2CCCN2C(=O)[C@@H]1Cc1ccccc1)C(=O)OCc1ccccc1 (some centres undefined)
58.6 µM: [13]
inactive: [1] > 100 µM | [2] 35.5 µM | [3] 48 µM | [4] 28.3 µM | [5] 44.4 µM | [6] 33 µM | [7] 58.5 µM | [8] > 100 µM | [9] 59.6 µM | [10] 30.9 µM | [11] 40.2 µM | [12] 39.9 µM | [14] 10.7 µM | [15] > 100 µM | [16] > 100 µM | [17] 26.2 µM | [18] 47.4 µM | [19] > 100 µM | [20] 33.4 µM | [21] 61.8 µM | [22] 48.2 µM | [23] 58.3 µM | [24] 45.4 µM | [25] 45.6 µM | [26] 62.1 µM | [27] 16.5 µM | [28] 65 µM | [29] 37.8 µM | [30] 53.2 µM | [31] 47.4 µM | [32] 39.5 µM | [33] 32.6 µM | [34] 68.4 µM | [35] > 100 µM | [36] 70.3 µM | [37] 15.1 µM | [38] 28.6 µM | [39] 56.2 µM | [40] 61.1 µM | [41] 62.2 µM | [42] > 100 µM | [43] 93.5 µM | [44] 25.8 µM | [45] > 100 µM | [46] 91.6 µM | [47] 41.6 µM | [48] 33.4 µM | [49] 92.7 µM | [50] 40 µM | [51] > 100 µM | [52] 73.3 µM | [53] 56.2 µM | [54] 69 µM | [55] 38.8 µM | [56] 31.8 µM

Nc1nc(=O)[nH]c2c1cnn2Cc1ccccc1
inactive: [2] > 100 µM | [3] > 100 µM | [4] > 100 µM | [5] > 100 µM | [6] > 100 µM | [7] > 100 µM | [8] > 100 µM | [9] > 100 µM | [57] > 100 µM | [10] > 100 µM | [12] > 100 µM | [14] > 100 µM | [15] > 100 µM | [17] > 100 µM | [18] > 100 µM | [19] > 100 µM | [20] > 100 µM | [21] 1.62 µM | [22] > 100 µM | [23] > 100 µM | [24] > 100 µM | [25] > 100 µM | [27] > 100 µM | [28] > 100 µM | [29] 1.41 µM | [30] 1.56 µM | [31] > 100 µM | [34] > 100 µM | [35] 1.47 µM | [36] > 100 µM | [37] > 100 µM | [38] 1.4 µM | [39] > 100 µM | [40] > 100 µM | [41] > 100 µM | [42] > 100 µM | [43] 1.88 µM | [58] > 100 µM | [44] > 100 µM | [46] > 100 µM | [47] > 100 µM | [48] > 100 µM | [49] 1.46 µM | [50] > 100 µM | [51] > 100 µM | [52] 1.35 µM | [53] 1.4 µM | [54] > 100 µM | [56] > 100 µM | [59] > 100 µM
> 100 µM: [13]

Cc1c(C(=O)CC(=O)C(=O)Nc2cccc(C(F)(F)F)c2)[n+]([O-])c2ccccc2[n+]1[O-]
3.31 µM: [13]
inactive: [1] 5.79 µM | [2] 20.7 µM | [3] 14.4 µM | [4] 3.15 µM | [5] 6.47 µM | [6] 2.51 µM | [7] 3.33 µM | [9] 1.92 µM | [57] 3.41 µM | [10] 5.07 µM | [11] 4.72 µM | [12] 3.06 µM | [14] 3.08 µM | [15] 11.2 µM | [16] 23.6 µM | [17] 14.3 µM | [18] 3.79 µM | [19] 2.74 µM | [20] 3.8 µM | [21] 3.8 µM | [22] 4.1 µM | [23] 2.86 µM | [24] 4.02 µM | [25] 3.37 µM | [26] 1.82 µM | [27] 2.71 µM | [28] 4.22 µM | [29] 30.8 µM | [30] 7.36 µM | [31] 2.97 µM | [32] 2.31 µM | [33] 1.66 µM | [34] 2.42 µM | [35] 7.28 µM | [36] 2.45 µM | [37] 3.07 µM | [38] 11.5 µM | [39] 2.84 µM | [40] 3.67 µM | [41] 10.6 µM | [42] 3.13 µM | [43] 7.35 µM | [58] 4.28 µM | [44] 3.57 µM | [45] 18.2 µM | [46] 3.37 µM | [47] 4.88 µM | [48] 3.04 µM | [49] 6.79 µM | [50] 2.33 µM | [51] 3.54 µM | [52] 28.2 µM | [53] 4.03 µM | [54] 2.56 µM | [55] 2.76 µM | [56] 16.3 µM

Cc1cc(N(CCC#N)CCC#N)ccc1CC1N=C(c2ccccc2)OC1=O (centres undefined)
> 100 µM: [13]
inactive: [1] > 100 µM | [2] > 100 µM | [3] > 100 µM | [4] > 100 µM | [5] > 100 µM | [6] > 100 µM | [7] > 100 µM | [8] > 100 µM | [9] > 100 µM | [57] > 100 µM | [10] > 100 µM | [11] > 100 µM | [12] > 100 µM | [14] > 100 µM | [16] > 100 µM | [17] > 100 µM | [18] > 100 µM | [19] > 100 µM | [20] > 100 µM | [21] > 100 µM | [22] > 100 µM | [23] > 100 µM | [24] > 100 µM | [25] > 100 µM | [26] > 100 µM | [27] > 100 µM | [28] > 100 µM | [29] 64.1 µM | [30] > 100 µM | [31] > 100 µM | [32] > 100 µM | [33] > 100 µM | [34] > 100 µM | [35] > 100 µM | [36] > 100 µM | [37] > 100 µM | [39] > 100 µM | [40] > 100 µM | [41] > 100 µM | [42] > 100 µM | [43] > 100 µM | [58] > 100 µM | [44] > 100 µM | [45] > 100 µM | [46] > 100 µM | [47] > 100 µM | [48] > 100 µM | [51] > 100 µM | [52] > 100 µM | [53] > 100 µM | [54] > 100 µM | [55] > 100 µM | [56] > 100 µM | [59] > 100 µM

From ChEMBL document CHEMBL1201862, “PubChem BioAssay data set” (2004)
